# In patent US20240261367A1, “CYCLIC PEPTIDE IMMUNOMODULATORS” (priority 2021, published 2024):
# Target: T1, PD-1/PD-L1 (Homo sapiens, UniProt Q9NZQ7)
# T1 construct: TVMV protease site linker (C); made in house; host or cells: HEK293T cells
# Assay: PD-1/PD-L1 Homogenous Time-Resolved Fluorescence (HTRF) binding assay
# Conditions: PD-L1-His (10 nM) pre-incubated with inhibitor 15 m, then PD-1-Ig (20 nM)
# T1 sequence (Q9NZQ7 18-239): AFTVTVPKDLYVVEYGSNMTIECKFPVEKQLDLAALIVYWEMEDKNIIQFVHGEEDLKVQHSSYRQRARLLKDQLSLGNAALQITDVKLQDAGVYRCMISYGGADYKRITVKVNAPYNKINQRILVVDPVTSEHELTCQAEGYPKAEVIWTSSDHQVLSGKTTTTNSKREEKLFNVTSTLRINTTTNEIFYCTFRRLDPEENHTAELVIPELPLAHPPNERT
structure (smiles),measurement,value
CCCC[C@H]1C(=O)N(C)[C@@H](CCCC)C(=O)N[C@@H](CC(C)C)C(=O)N[C@H](C(=O)NCC(=O)N[C@@H](Cc2cn(CCOCCOCCOCCOCCOCCOCCOCCOCCOCCOCCOCCNC(=O)CC[C@H](NC(=O)CCCCCCCCCCCCCCCCC(=O)O)C(=O)O)nn2)C(=O)O)CSCC(=O)N[C@@H](Cc2ccc(O)cc2)C(=O)N(C)[C@@H](C)C(=O)N[C@@H](CC(N)=O)C(=O)N2CCC[C@H]2C(=O)N[C@@H](CNC(=O)OC)C(=O)N[C@@H](CC(C)C)C(=O)N2C[C@H](O)C[C@H]2C(=O)N[C@@H](Cc2c[nH]c3ccccc23)C(=O)N[C@@H](CCNC(=O)OCC)C(=O)N[C@@H](Cc2cn(CC(=O)O)c3ccccc23)C(=O)N1C [Example 7012],IC50,0.008 µM
CCCC[C@H]1C(=O)N(C)[C@@H](CCCC)C(=O)N[C@@H](CC(C)C)C(=O)N[C@H](C(=O)NCC(=O)N[C@@H](Cc2cn(CCOCCOCCOCCOCCOCCOCCOCCOCCOCCOCCOCCNC(=O)CC[C@H](NC(=O)CCCCCCCCCCCCCCCCC(=O)O)C(=O)O)nn2)C(=O)O)CSCC(=O)N[C@@H](Cc2ccc(O)cc2)C(=O)N(C)[C@@H](C)C(=O)N[C@@H](CC(N)=O)C(=O)N2CCC[C@H]2C(=O)N[C@@H](CNC(=O)OCC)C(=O)N[C@@H](CC(C)C)C(=O)N2C[C@H](O)C[C@H]2C(=O)N[C@@H](Cc2c[nH]c3ccccc23)C(=O)N[C@@H](CCNC(=O)OC)C(=O)N[C@@H](Cc2cn(CC(=O)O)c3ccccc23)C(=O)N1C [Example 7013],IC50,0.049 µM
CCCC[C@H]1C(=O)N(C)[C@@H](CCCC)C(=O)N[C@@H](CC(C)C)C(=O)N[C@H](C(=O)NCC(=O)N[C@@H](Cc2cn(CCOCCOCCOCCOCCOCCOCCOCCOCCOCCOCCOCCNC(=O)CC[C@H](NC(=O)CCCCCCCCCCCCCCCCC(=O)O)C(=O)O)nn2)C(=O)O)CSCC(=O)N[C@@H](Cc2ccc(O)cc2)C(=O)N(C)[C@@H](C)C(=O)N[C@@H](CC(N)=O)C(=O)N2CCC[C@H]2C(=O)N[C@@H](CNC(=O)OCC)C(=O)N[C@@H](CC(C)C)C(=O)N2C[C@H](O)C[C@H]2C(=O)N[C@@H](Cc2c[nH]c3ccccc23)C(=O)N[C@@H](CCNC(=O)OCc2oc(=O)oc2C)C(=O)N[C@@H](Cc2cn(CC(=O)O)c3ccccc23)C(=O)N1C [Example 7014],IC50,0.0086 µM
CCCC[C@H]1C(=O)N(C)[C@@H](CCCC)C(=O)N[C@@H](CC(C)C)C(=O)N[C@H](C(=O)NCC(=O)N[C@@H](Cc2cn(CCOCCOCCOCCOCCOCCOCCOCCOCCOCCOCCOCCNC(=O)CC[C@H](NC(=O)CCCCCCCCCCCCCCCCC(=O)OCc3oc(=O)oc3C)C(=O)O)nn2)C(=O)O)CSCC(=O)N[C@@H](Cc2ccc(O)cc2)C(=O)N(C)[C@@H](C)C(=O)N[C@@H](CC(N)=O)C(=O)N2CCC[C@H]2C(=O)N[C@@H](CNC(=O)OCC)C(=O)N[C@@H](CC(C)C)C(=O)N2C[C@H](O)C[C@H]2C(=O)N[C@@H](Cc2c[nH]c3ccccc23)C(=O)N[C@@H](CCN)C(=O)N[C@@H](Cc2cn(CC(=O)O)c3ccccc23)C(=O)N1C [Example 7016],IC50,0.034 µM
CCCC[C@H]1C(=O)N(C)[C@@H](CCCC)C(=O)N[C@@H](CC(C)C)C(=O)N[C@H](C(=O)NCC(=O)N[C@@H](Cc2cn(CCOCCOCCOCCOCCOCCOCCOCCOCCOCCOCCOCCNC(=O)CC[C@H](NC(=O)CCCCCCCCCCCCCCCCC(=O)O)C(=O)O)nn2)C(=O)O)CSCC(=O)N[C@@H](Cc2ccc(O)cc2)C(=O)N(C)[C@@H](C)C(=O)N[C@@H](CC(N)=O)C(=O)N2CCC[C@H]2C(=O)N[C@@H](CNCC(O)C(O)C(O)C(O)C(O)CO)C(=O)N[C@@H](CC(C)C)C(=O)N2C[C@H](O)C[C@H]2C(=O)N[C@@H](Cc2c[nH]c3ccccc23)C(=O)N[C@@H](CCN)C(=O)N[C@@H](Cc2cn(CC(=O)O)c3ccccc23)C(=O)N1C (some centres unmarked) [Example 8001],IC50,0.012 µM
